Kd data for 25 molecules are collected here from publication PMC8162404, “Proteomimetic surface fragments distinguish targets by function” (Chemical Science, 2020).

In experiment [1] the target is T1, S100B (Homo sapiens, UniProt P04271).
T1 construct: made in house; host or cells: Escherichia coli BL21(DE3)
T1 sequence (P04271 1-92): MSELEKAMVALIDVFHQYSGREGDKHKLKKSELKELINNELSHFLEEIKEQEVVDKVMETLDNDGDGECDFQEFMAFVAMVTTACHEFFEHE
Put plainly: Pull-down assay with immobilized protein and LSM libraries. To be noted: H12 library; 1:1 binding assumed; read-out: Surface mapping KD (apparent). The class given is binding. The gist of the method:
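Buffers were HEPES pH 7.4 with 150 mM NaCl, plus 1 mM TCEP and 1 mM CaCl2 (50 mM HEPES) for S100A4 and S100B, 1 mM TCEP for Gal-1, and no additive for RecQ-WH. Immobilized protein at 64 µM was equilibrated 30 min with the LSM sublibrary, and unbound probes were measured by LC-MS.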

Experiment [2] deals with T2, Gal-1 (Homo sapiens, UniProt P09382).
T2 construct: made in house; host or cells: E. coli BL21(DE3)
T2 sequence (P09382 whole entry): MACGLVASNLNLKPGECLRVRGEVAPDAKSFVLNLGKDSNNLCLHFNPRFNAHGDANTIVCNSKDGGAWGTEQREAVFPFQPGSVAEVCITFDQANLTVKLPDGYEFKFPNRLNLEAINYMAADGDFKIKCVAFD
The description is as above. Format: binding. The note with it: H12 library; 1:1 binding assumed; read-out: Surface mapping KD (apparent). The method in brief: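 His-tagged protein immobilized on Co-NTA resin (64 µM) in 20 mM HEPES pH 7.4, 150 mM NaCl, equilibrated 30 min at room temperature with foldamer LSM sublibraries at equimolar total concentration. Unbound fractions quantified by HPLC-MS versus protein-free resin control; apparent KD assumes 1:1 binding.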

For the molecule `CSCC[C@@H](CC(=O)N[C@H]1CCC[C@@H]1C(=O)N[C@H]1CCC[C@@H]1C(=O)N[C@@H](CC(=O)O)CC(=O)N[C@H]1CCC[C@@H]1C(=O)N[C@H]1CCC[C@@H]1C(N)=O)NC(=O)[C@H]1CCC[C@@H]1NC(=O)[C@H]1CCC[C@@H]1N` [H12 MD], the Kd in experiment [1] came to 471 µM; in experiment [2], 169 µM.
For `CSCC[C@@H](CC(=O)N[C@H]1CCC[C@@H]1C(=O)N[C@H]1CCC[C@@H]1C(N)=O)NC(=O)[C@H]1CCC[C@@H]1NC(=O)[C@H]1CCC[C@@H]1NC(=O)C[C@@H](NC(=O)[C@H]1CCC[C@@H]1NC(=O)[C@H]1CCC[C@@H]1N)C(C)C` [H12 VM] the same measures were 303 µM and 459 µM.
On to `CC(C)[C@@H](CC(=O)N[C@H]1CCC[C@@H]1C(=O)N[C@H]1CCC[C@@H]1C(=O)N[C@@H](CCCNC(=N)N)CC(=O)N[C@H]1CCC[C@@H]1C(=O)N[C@H]1CCC[C@@H]1C(N)=O)NC(=O)[C@H]1CCC[C@@H]1NC(=O)[C@H]1CCC[C@@H]1N` [H12 VR], for which the Kd in experiment [1] was 118 µM; in experiment [2], 234 µM.
For `NCCCC[C@@H](CC(=O)N[C@H]1CCC[C@@H]1C(=O)N[C@H]1CCC[C@@H]1C(N)=O)NC(=O)[C@H]1CCC[C@@H]1NC(=O)[C@H]1CCC[C@@H]1NC(=O)C[C@H](CCCCN)NC(=O)[C@H]1CCC[C@@H]1NC(=O)[C@H]1CCC[C@@H]1N` [H12 KK] the same measures were 177 µM and 230 µM.
The matching figures for `NC(=O)[C@H]1CCC[C@@H]1NC(=O)[C@H]1CCC[C@@H]1NC(=O)C[C@H](CCC(=O)O)NC(=O)[C@H]1CCC[C@@H]1NC(=O)[C@H]1CCC[C@@H]1NC(=O)C[C@H](Cc1ccc(O)cc1)NC(=O)[C@H]1CCC[C@@H]1NC(=O)[C@H]1CCC[C@@H]1N` [H12 YE]: 459 µM and 198 µM.
`CSCC[C@@H](CC(=O)N[C@H]1CCC[C@@H]1C(=O)N[C@H]1CCC[C@@H]1C(=O)N[C@@H](CO)CC(=O)N[C@H]1CCC[C@@H]1C(=O)N[C@H]1CCC[C@@H]1C(N)=O)NC(=O)[C@H]1CCC[C@@H]1NC(=O)[C@H]1CCC[C@@H]1N` [H12 MS]: the Kd in experiment [1] was found to be 215 µM; in experiment [2] it was 224 µM.
For `C[C@@H](O)[C@@H](CC(=O)N[C@H]1CCC[C@@H]1C(=O)N[C@H]1CCC[C@@H]1C(N)=O)NC(=O)[C@H]1CCC[C@@H]1NC(=O)[C@H]1CCC[C@@H]1NC(=O)C[C@H](Cc1ccc(O)cc1)NC(=O)[C@H]1CCC[C@@H]1NC(=O)[C@H]1CCC[C@@H]1N` [H12 YT] the same measures were 251 µM and 300 µM.
In the case of `NC(=O)[C@H]1CCC[C@@H]1NC(=O)[C@H]1CCC[C@@H]1NC(=O)C[C@H](CO)NC(=O)[C@H]1CCC[C@@H]1NC(=O)[C@H]1CCC[C@@H]1NC(=O)C[C@H](Cc1ccc(O)cc1)NC(=O)[C@H]1CCC[C@@H]1NC(=O)[C@H]1CCC[C@@H]1N` [H12 YS], the Kd turned out to be 195 µM in experiment [1] and 194 µM in experiment [2].
For `CSCC[C@@H](CC(=O)N[C@H]1CCC[C@@H]1C(=O)N[C@H]1CCC[C@@H]1C(=O)N[C@@H](CCCCN)CC(=O)N[C@H]1CCC[C@@H]1C(=O)N[C@H]1CCC[C@@H]1C(N)=O)NC(=O)[C@H]1CCC[C@@H]1NC(=O)[C@H]1CCC[C@@H]1N` [H12 MK] the same measures were 78 µM and 172 µM.
For `CC(C)[C@@H](CC(=O)N[C@H]1CCC[C@@H]1C(=O)N[C@H]1CCC[C@@H]1C(N)=O)NC(=O)[C@H]1CCC[C@@H]1NC(=O)[C@H]1CCC[C@@H]1NC(=O)C[C@@H](NC(=O)[C@H]1CCC[C@@H]1NC(=O)[C@H]1CCC[C@@H]1N)C(C)C` [H12 VV] the same measures were 277 µM and 439 µM.
For the molecule `CSCC[C@@H](CC(=O)N[C@H]1CCC[C@@H]1C(=O)N[C@H]1CCC[C@@H]1C(=O)N[C@H](CC(=O)N[C@H]1CCC[C@@H]1C(=O)N[C@H]1CCC[C@@H]1C(N)=O)[C@@H](C)O)NC(=O)[C@H]1CCC[C@@H]1NC(=O)[C@H]1CCC[C@@H]1N` [H12 MT], the Kd in experiment [1] was found to be 162 µM; in experiment [2], 169 µM.
Regarding `CC(C)C[C@@H](CC(=O)N[C@H]1CCC[C@@H]1C(=O)N[C@H]1CCC[C@@H]1C(=O)N[C@@H](CC(N)=O)CC(=O)N[C@H]1CCC[C@@H]1C(=O)N[C@H]1CCC[C@@H]1C(N)=O)NC(=O)[C@H]1CCC[C@@H]1NC(=O)[C@H]1CCC[C@@H]1N` [H12 LN], the Kd in experiment [1] came out at 264 µM; in experiment [2], 423 µM.
The matching figures for `CC[C@H](C)[C@@H](CC(=O)N[C@H]1CCC[C@@H]1C(=O)N[C@H]1CCC[C@@H]1C(=O)N[C@@H](CO)CC(=O)N[C@H]1CCC[C@@H]1C(=O)N[C@H]1CCC[C@@H]1C(N)=O)NC(=O)[C@H]1CCC[C@@H]1NC(=O)[C@H]1CCC[C@@H]1N` [H12 IS]: 360 µM and 485 µM.
For `NCCCC[C@@H](CC(=O)N[C@H]1CCC[C@@H]1C(=O)N[C@H]1CCC[C@@H]1C(=O)N[C@H](CC(=O)N[C@H]1CCC[C@@H]1C(=O)N[C@H]1CCC[C@@H]1C(N)=O)Cc1ccc(O)cc1)NC(=O)[C@H]1CCC[C@@H]1NC(=O)[C@H]1CCC[C@@H]1N` [H12 KY] the same measures were 138 µM and 227 µM.
As to `CC[C@H](C)[C@@H](CC(=O)N[C@H]1CCC[C@@H]1C(=O)N[C@H]1CCC[C@@H]1C(N)=O)NC(=O)[C@H]1CCC[C@@H]1NC(=O)[C@H]1CCC[C@@H]1NC(=O)C[C@H](C)NC(=O)[C@H]1CCC[C@@H]1NC(=O)[C@H]1CCC[C@@H]1N` [H12 AI], the values for the Kd in experiment [1] and in experiment [2] were 348 µM and 436 µM, respectively.
For `N=C(N)NCCC[C@@H](CC(=O)N[C@H]1CCC[C@@H]1C(=O)N[C@H]1CCC[C@@H]1C(N)=O)NC(=O)[C@H]1CCC[C@@H]1NC(=O)[C@H]1CCC[C@@H]1NC(=O)C[C@H](CCC(N)=O)NC(=O)[C@H]1CCC[C@@H]1NC(=O)[C@H]1CCC[C@@H]1N` [H12 QR] the same measures were 321 µM and 431 µM.
In the case of `CC(C)C[C@@H](CC(=O)N[C@H]1CCC[C@@H]1C(=O)N[C@H]1CCC[C@@H]1C(N)=O)NC(=O)[C@H]1CCC[C@@H]1NC(=O)[C@H]1CCC[C@@H]1NC(=O)C[C@H](C)NC(=O)[C@H]1CCC[C@@H]1NC(=O)[C@H]1CCC[C@@H]1N` [H12 AL], the Kd in experiment [1] was 348 µM; in experiment [2], 436 µM.
The matching figures for `CSCC[C@@H](CC(=O)N[C@H]1CCC[C@@H]1C(=O)N[C@H]1CCC[C@@H]1C(=O)N[C@@H](CCC(N)=O)CC(=O)N[C@H]1CCC[C@@H]1C(=O)N[C@H]1CCC[C@@H]1C(N)=O)NC(=O)[C@H]1CCC[C@@H]1NC(=O)[C@H]1CCC[C@@H]1N` [H12 MQ]: 192 µM and 173 µM.
On to `NC(=O)[C@H]1CCC[C@@H]1NC(=O)[C@H]1CCC[C@@H]1NC(=O)C[C@H](CC(=O)O)NC(=O)[C@H]1CCC[C@@H]1NC(=O)[C@H]1CCC[C@@H]1NC(=O)C[C@H](Cc1c[nH]c2ccccc12)NC(=O)[C@H]1CCC[C@@H]1NC(=O)[C@H]1CCC[C@@H]1N` [H12 WD], for which the values for the Kd in experiment [1] and in experiment [2] were 199 µM and 297 µM, respectively.
For `CSCC[C@@H](CC(=O)N[C@H]1CCC[C@@H]1C(=O)N[C@H]1CCC[C@@H]1C(=O)N[C@@H](CC(N)=O)CC(=O)N[C@H]1CCC[C@@H]1C(=O)N[C@H]1CCC[C@@H]1C(N)=O)NC(=O)[C@H]1CCC[C@@H]1NC(=O)[C@H]1CCC[C@@H]1N` [H12 MN] the same measures were 177 µM and 195 µM.
For `CC(C)[C@@H](CC(=O)N[C@H]1CCC[C@@H]1C(=O)N[C@H]1CCC[C@@H]1C(N)=O)NC(=O)[C@H]1CCC[C@@H]1NC(=O)[C@H]1CCC[C@@H]1NC(=O)C[C@H](CCCCN)NC(=O)[C@H]1CCC[C@@H]1NC(=O)[C@H]1CCC[C@@H]1N` [H12 KV] the same measures were 193 µM and 221 µM.
For `C[C@@H](CC(=O)N[C@H]1CCC[C@@H]1C(=O)N[C@H]1CCC[C@@H]1C(=O)N[C@H](CC(=O)N[C@H]1CCC[C@@H]1C(=O)N[C@H]1CCC[C@@H]1C(N)=O)Cc1ccccc1)NC(=O)[C@H]1CCC[C@@H]1NC(=O)[C@H]1CCC[C@@H]1N` [H12 AF] the same measures were 114 µM and 428 µM.
For `NC(=O)[C@H]1CCC[C@@H]1NC(=O)[C@H]1CCC[C@@H]1NC(=O)C[C@H](CC(=O)O)NC(=O)[C@H]1CCC[C@@H]1NC(=O)[C@H]1CCC[C@@H]1NC(=O)C[C@H](Cc1ccccc1)NC(=O)[C@H]1CCC[C@@H]1NC(=O)[C@H]1CCC[C@@H]1N` [H12 FD], the Kd in experiment [1] was 371 µM; in experiment [2], 251 µM.
The matching figures for `NC(=O)C[C@@H](CC(=O)N[C@H]1CCC[C@@H]1C(=O)N[C@H]1CCC[C@@H]1C(N)=O)NC(=O)[C@H]1CCC[C@@H]1NC(=O)[C@H]1CCC[C@@H]1NC(=O)C[C@H](Cc1ccccc1)NC(=O)[C@H]1CCC[C@@H]1NC(=O)[C@H]1CCC[C@@H]1N` [H12 FN]: 109 µM and 226 µM.
On to `NC(=O)CC[C@@H](CC(=O)N[C@H]1CCC[C@@H]1C(=O)N[C@H]1CCC[C@@H]1C(N)=O)NC(=O)[C@H]1CCC[C@@H]1NC(=O)[C@H]1CCC[C@@H]1NC(=O)C[C@H](Cc1ccccc1)NC(=O)[C@H]1CCC[C@@H]1NC(=O)[C@H]1CCC[C@@H]1N` [H12 FQ], for which the Kd in experiment [1] was 104 µM; in experiment [2], 208 µM.
